Test results published in article PMC5587309, “Involvement of arginine 878 together with Ca^2+ in mouse aminopeptidase A substrate specificity for N-terminal acidic amino-acid residues” (PLoS ONE, 2017).
Read-outs that look alike come from different tables or passages of the source.

Columns and labels:
wild-type mAPA = biological target: T1, wild-type mAPA (Mus musculus, UniProt P16406); assay: Inhibition of GluNA hydrolysis by purified recombinant wild-type His-mAPA; assay type: biochemical; settings: wild-type mAPA; for Ki: 0.5 mM GluNA, read-out: Ki
T1 construct: made in house; host or cells: stably transfected CHO-K1 cells
T1 sequence (P16406 1-945): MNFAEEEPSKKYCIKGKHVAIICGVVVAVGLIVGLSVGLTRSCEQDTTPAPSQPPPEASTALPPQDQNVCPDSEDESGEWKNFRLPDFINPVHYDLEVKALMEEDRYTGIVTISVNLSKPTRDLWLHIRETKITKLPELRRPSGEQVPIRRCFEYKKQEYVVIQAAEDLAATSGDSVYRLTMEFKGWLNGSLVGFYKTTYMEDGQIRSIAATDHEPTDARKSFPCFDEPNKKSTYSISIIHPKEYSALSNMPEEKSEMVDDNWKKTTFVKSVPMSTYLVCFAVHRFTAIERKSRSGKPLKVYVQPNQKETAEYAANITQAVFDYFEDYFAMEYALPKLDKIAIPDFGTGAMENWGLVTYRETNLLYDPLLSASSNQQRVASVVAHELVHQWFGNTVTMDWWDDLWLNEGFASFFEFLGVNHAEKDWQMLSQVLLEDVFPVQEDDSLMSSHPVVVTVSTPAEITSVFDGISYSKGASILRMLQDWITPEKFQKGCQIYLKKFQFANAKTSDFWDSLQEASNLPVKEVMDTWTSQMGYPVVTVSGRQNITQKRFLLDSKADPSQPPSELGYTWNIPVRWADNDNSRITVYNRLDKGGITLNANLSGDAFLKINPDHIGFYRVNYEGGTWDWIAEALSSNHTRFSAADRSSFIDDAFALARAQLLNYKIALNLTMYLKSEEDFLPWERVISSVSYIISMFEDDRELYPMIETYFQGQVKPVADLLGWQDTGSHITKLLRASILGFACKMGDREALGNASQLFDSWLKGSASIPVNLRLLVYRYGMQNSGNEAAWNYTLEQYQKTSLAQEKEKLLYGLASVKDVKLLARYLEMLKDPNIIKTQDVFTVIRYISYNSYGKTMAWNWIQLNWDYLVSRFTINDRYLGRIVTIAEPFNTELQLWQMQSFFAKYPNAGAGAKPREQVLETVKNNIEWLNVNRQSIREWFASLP
Experimental: Enzyme assays were carried out for wild-type and mutated His-mAPAs in 50 mM Tris-HCl buffer, pH 7.4, with or without 4 mM CaCl2, by monitoring the rate of hydrolysis of GluNA, as previously described. The sensitivity to Ca^2+ of purified wild-type and mutated His-mAPA was determinated by incubating 0.5 mM GluNA with 0 to 4 mM CaCl2 in a final volume of 100 μl of 50 mM Tris-HCl buffer, pH 7.4. All the assays were performed in black 96-well plates (solid black 96-well flat-bottomed non-treated plates with no lid; Corning Costar). All of the enzymatic studies were performed such that substrate hydrolysis rates were maintained below 10% (initial rate conditions). The kinetic curves were monitored by following the increase in fluorescence at 460 nm (lex = 330 nm), induced by the release of the β-naphthylamide fluorogenic part of the substrate by APA. Fluorescence signals were monitored by counting photons with a spectrophotometer (Fusion universal microplate analyser; Packard) equipped with a temperature control device and a plate shaker. The kinetic parameters (Km and kcat) were determined from Michaelis-Menten plots, using GraphPad Prism 4 software (GraphPad) with a final concentration of substrate (GluNA) from 0.005 to 5 mM with or without 4 mM Ca^2+. For evaluation of the substrate specificity of APA with or without 4 mM Ca^2+, the rate of hydrolysis of […] additional substrates, α-L-aspartate-β-naphthylamide (AspNA), α-L-alanine-β-naphthylamide (AlaNA) and basic α-L-lysine-β-naphthylamide (LysNA), was determined under the same experimental conditions as described for GluNA. The sensitivity of wild-type and mutated His-mAPAs to inhibition by [(3S)-3-amino-4-sulfanyl-butane-1-sulfonic acid] (EC33), glutamate-thiol (GluSH), glutamate-phosphonic-acid (GluPO3H2), methionine-thiol (MetSH) and lysine-thiol (LysSH) was determined by establishing dose-dependent inhibition curves for a final GluNA concentration of 0.5 mM in the presence or absence of 4 mM CaCl2. These compounds being linear competitive inhibitors, their Ki were calculated from the formula Ki = IC50/ (1+ [GluNA]/Km).

APA = biological target: APA; design: method as in PMID 7915326; settings: read-out: inhibitory potency on APA; cited from earlier work
APN = system: APN; design: method as in PMID 7915326; settings: cited from earlier work

enhancement of inhibitory potency by 4 mM Ca2+ compared to Ki in the absence of Ca2+ (wild-type mAPA) | Ki (wild-type mAPA; 4 mM Ca2+) | Ki (wild-type mAPA; absence of calcium) | Structure (SMILES) | Ki (APA) | fold less active on APN than on APA (APN)
5.0 fold | 314 ± 33 nM | 1570 ± 270 nM | N[C@H](CS)CCC(=O)O [GluSH, (4S)-4-amino-5-sulfanylpentanoic acid] |  | 
 | 9180 ± 770 nM | 750 ± 46 nM | CSCC[C@H](N)CS [MetSH] |  | 
 | 13400 ± 1700 nM | 317 ± 30 nM | NCCCC[C@H](N)CS [LysSH, (2S)-2,6-diaminohexane-1-thiol] |  | 

Structure (SMILES) | enhancement of inhibitory potency by 4 mM Ca2+ compared to Ki in the absence of Ca2+ (wild-type mAPA) | Ki (wild-type mAPA; 4 mM Ca2+) | Ki (wild-type mAPA; absence of calcium) | Ki (APA) | fold less active on APN than on APA (APN)
N[C@H](CS)CCS(=O)(=O)O [EC33, (3S)‐3‐amino‐4‐sulfanylbutane‐1‐sulfonic acid] |  | 268 ± 22 nM |  | 100 nM | 100 fold
